Measurements from US20260344670A1, “BIXLOZONE MIXTURES WITH PETHOXAMID” (FMC CORPORATION, priority 2022, published 2026).

What was measured:
Format in all cases: in vivo
weeds [1] = experiment: Example 4: pre-emergence weed control on corn at relatively medium application rates of pethoxamid (Table 12); settings: 800 g/ha pethoxamid
Protocol: (§1) The herbicidal compounds bixlozone and pethoxamid were applied in a variety of forms and at a variety of amounts, application rates, and normalities. Efficacy of the herbicidal compositions was evaluated with reference to a scale of 0% to 100% in comparison with untreated control plots. 0 means no damage to the harmful plants and 100 means complete destruction of the harmful plants. Plants per square meter is indicated by “pl/m^2”, and grams per hectare is indicated by “g/ha”. The acronym “EC” means emulsifiable concentrate (a liquid, homogenous formulation to be applied as an emulsion after dilution with water); “SC” means suspension concentrate (a stable suspension of active ingredient(s) with water as the fluid); “ZC” refers to a mixed formulation of CS and SC (a stable suspension of capsules and active ingredient(s) in a fluid, normally intended for dilution with water before use).
Various forms, compositions, and mixtures of bixlozone and pethoxamid were applied to corn before emergence. […] Mixtures of bixlozone with 800 g/ha pethoxamid improved weed spectrum on a range of broad leaf weeds (e.g., CHEAL and ABUTH) and grasses (e.g., ECHCG, DIGSA, and SETVI). Combinations of bixlozone and pethoxamid in pre-emergence applications were very safe with no clear pethoxamid rate effect.

weeds [2] = experiment: Example 3: pre-emergence weed control on corn at relatively high application rates of pethoxamid (Tables 8-11); settings: 1200 g/ha pethoxamid
Source text: [formula] • where ppm=milligrams of active ingredient (=a.i.) per liter of spray mixture X=% action by component A using p ppm of active ingredient Y=% action by component B using q ppm of active ingredient. If the ratio R defined as the action actually observed (O) divided by the expected action (E) is >1 then the action of the combination is superadditive, i.e. there is a synergistic effect. For a more detailed description of the Colby formula, see Colby, S. R. “Calculating Synergistic and Antagonistic Responses of Herbicide Combination”, Weeds, Vol. 15, pages 20-22; 1967; see also Limpel et al., Proc. NEWCC 16:48-53 (1962).
As used herein, rating timings correspond to the following: A1=weed assessment at BBCH 11-12; A2=4 weeks after the application; A3=when ZEAMX crop reaches BBCH 18 (row closure); and A4=BBCH 51-59 of the ZEAMX crop.
The herbicidal compounds bixlozone and pethoxamid were applied in a variety of forms and at a variety of amounts, application rates, and normalities. Efficacy of the herbicidal compositions was evaluated with reference to a scale of 0% to 100% in comparison with untreated control plots. 0 means no damage to the harmful plants and 100 means complete destruction of the harmful plants. Plants per square meter is indicated by “pl/m^2”, and grams per hectare is indicated by “g/ha”. […]

weeds [3] = experiment: Example 5: pre-emergence weed control on corn at relatively low application rates of pethoxamid (Table 13); settings: 300 g/ha pethoxamid
Protocol: as §1
Various forms, compositions, and mixtures of bixlozone and pethoxamid were applied to corn before emergence. […] Mixtures of bixlozone with 300 g/ha pethoxamid improved weed spectrum on a range of broad leaf weeds (e.g., SOLNI and ABUTH). Combinations of bixlozone and pethoxamid in pre-emergence applications were very safe with no clear pethoxamid rate effect.

## CC1(C)CON(Cc2ccc(Cl)cc2Cl)C1=O [bixlozone]
Weeds [1]
  efficacy (in words): minimal differences in performance between SC and CS were observed, except on CHEAL and ABUTH
Weeds [2]
  efficacy (in words): minimal differences in performance between SC and CS were observed, except on CHEAL and ECHCG
Weeds [3]
  efficacy (in words): minimal differences in performance between SC and CS were observed, except on POLSS, SOLNI, ABUTH, and ECHCG
